{"source": "patent US10189819B2", "about": "“Factor IXa inhibitors” (MERCK SHARP & DOHME CORP., priority 2014, dated 2019)"}
{"biological_target": "Factor IXa (Homo sapiens (Human), UniProt P00740)", "sequence (P00740 227-461)": "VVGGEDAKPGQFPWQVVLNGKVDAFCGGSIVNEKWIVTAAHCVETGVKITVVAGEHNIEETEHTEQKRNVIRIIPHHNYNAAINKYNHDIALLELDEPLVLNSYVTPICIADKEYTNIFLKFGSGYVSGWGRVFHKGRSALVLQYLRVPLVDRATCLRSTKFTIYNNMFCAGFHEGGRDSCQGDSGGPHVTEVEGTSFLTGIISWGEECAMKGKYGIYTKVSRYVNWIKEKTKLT", "sequence (P00740 47-191 partner)": "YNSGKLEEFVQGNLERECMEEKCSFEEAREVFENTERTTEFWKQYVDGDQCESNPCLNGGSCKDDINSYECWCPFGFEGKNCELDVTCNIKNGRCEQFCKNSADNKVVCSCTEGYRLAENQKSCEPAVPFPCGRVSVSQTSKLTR", "test": "Determination of inhibitory activity against Factor IXa (cleavage of fluorescent peptide CH3SO2-D-CHG-Gly-Arg-AFC)", "assay_type": "biochemical", "settings": "read-out: FIXa IC50", "description": "(§1) Determination of Inhibitory Activity Against Factor IXa\n(§2) Formation of a clot to stem bleeding at a site of blood vessel injury involves the coordinated activity of a group of plasma proteins that initiate and propagate fibrin formation and subsequently protect fibrin from premature degradation. Factor IX is a key component of the plasma system that forms a fibrin clot at a site of vascular injury. The activity of Factor IXa is measured by monitoring the cleavage of the fluorescent peptide, CH3SO2-D-CHG-Gly-Arg-AFC.AcOH (“CHG” is cyclohexyl-glycine and “AFC” is trifluoro aminomethyl coumarin). Factor IXa cleaves the amide bond between Arg and AFC, thereby releasing the AFC fluorophore. The free AFC can be detected with a fluorescence detector at an excitation wavelength of 405 nm and emission wavelength of 510 nm.", "units": {"IC50": "µM"}}
{"compound": "Cc1cc2nc([C@@](C)(CNC(=O)c3c(Cl)cc(-n4cnnc4)cc3Cl)c3ccc(F)cc3)[nH]c2cc1C", "note": "[Example 70]", "IC50": 0.0056}
{"compound": "Cc1cc2cc([C@@H](CNC(=O)c3c(Cl)cc(-n4cnnc4)cc3Cl)c3ccccc3)[nH]c2cc1C", "note": "[Example 74, (R)-2,6-dichloro-N-(2-(5,6-dimethyl-1H-indol-2-yl)-2-phenylethyl)-4-(4H-1,2,4-triazol-4-yl)benzamide]", "IC50": 0.0291}
{"compound": "Cc1ncn(-c2cc(Cl)c(C(=O)NC[C@@H](c3cccc(F)c3)c3ccc4[nH]c(C)nc4c3)c(Cl)c2)n1", "note": "[Example 75, (R)-2,6-dichloro-N-(2-(3-fluorophenyl)-2-(2-methyl-1H-benzo[d]imidazol-5-yl)ethyl)-4-(3-methyl-1H-1,2,4-triazol-1-yl)benzamide]", "IC50": 0.0091}
{"compound": "Cc1ncn(-c2cc(Cl)c(C(=O)NC[C@@H](c3cccc(F)c3)c3cnc4[nH]c(C)nc4c3)c(Cl)c2)n1", "note": "[Example 76, (S)-2,6-dichloro-N-(2-(3-fluorophenyl)-2-(2-methyl-3H-imidazo[4,5-b]pyridin-6-yl)ethyl)-4-(3-methyl-1H-1,2,4-triazol-1-yl)benzamide]", "IC50": 0.0806}
{"compound": "Cc1ncn(-c2cc(Cl)c(C(=O)NC[C@@H](c3cccc(F)c3)c3ccc4sc(C)nc4c3)c(Cl)c2)n1", "note": "[Example 83, (R)-2,6-dichloro-N-(2-(3-fluorophenyl)-2-(2-methylbenzo[d]thiazol-5-yl)ethyl)-4-(3-methyl-1H-1,2,4-triazol-1-yl)benzamide]", "IC50": 0.0595}
{"compound": "Cc1ccc2nn([C@@H](CNC(=O)c3ccc(-n4cnnc4)cc3Cl)c3ccccc3)cc2c1", "note": "[Example 84, (R)-2-chloro-N-(2-(5-methyl-2H-indazol-2-yl)-2-phenylethyl)-4-(4H-1,2,4-triazol-4-yl)benzamide]", "IC50": 0.24}
{"compound": "Cc1ccc2c(cnn2[C@H](CNC(=O)c2ccc(-n3cnnc3)cc2Cl)c2ccccc2)c1", "note": "[Example 85, (S)-2-chloro-N-(2-(5-methyl-1H-indazol-1-yl)-2-phenylethyl)-4-(4H-1,2,4-triazol-4-yl)benzamide]", "IC50": 0.038}
{"compound": "Cc1ccc2c(cnn2[C@H](CNC(=O)c2c(Cl)cc(-n3cc(CCO)nn3)cc2Cl)c2cnco2)c1", "note": "[Example 86, (R)-2,6-dichloro-4-(4-(2-hydroxyethyl)-1H-1,2,3-triazol-1-yl)-N-(2-(5-methyl-1H-indazol-1-yl)-2-(oxazol-5-yl)ethyl)benzamide]", "IC50": 0.007}
{"compound": "Cc1ccc2c([C@H](CNC(=O)c3ccc(-n4cnnc4)cc3Cl)c3ccccc3)n[nH]c2c1", "note": "[Example 88, (S)-2-chloro-N-(2-(6-methyl-1H-indazol-3-yl)-2-phenylethyl)-4-(4H-1,2,4-triazol-4-yl)benzamide]", "IC50": 0.0688}
{"compound": "Cc1ccc2nn([C@@H](CNC(=O)c3c(Cl)cc(-n4cnnc4)cc3Cl)c3ccccc3)nc2c1", "note": "[Example 89, (R)-2,6-dichloro-N-(2-(5-methyl-2H-benzo[d][1,2,3]triazol-2-yl)-2-phenylethyl)-4-(4H-1,2,4-triazol-4-yl)benzamide]", "IC50": 0.0209}
{"compound": "Cc1ccc2c(c1)nnn2[C@H](CNC(=O)c1c(Cl)cc(-n2cnnc2)cc1Cl)c1ccccc1", "note": "[Example 90, (S)-2,6-dichloro-N-(2-(5-methyl-1H-benzo[d][1,2,3]triazol-1-yl)-2-phenylethyl)-4-(4H-1,2,4-triazol-4-yl)benzamide]", "IC50": 0.038}
{"compound": "Cc1ccc2nc([C@@H](CNC(=O)c3ccc(-n4cnnc4)cc3Cl)c3ccccc3)[nH]c(=O)c2c1", "note": "[Example 91, (R)-2-Chloro-N-(2-(6-methyl-4-oxo-3,4-dihydroquinazolin-2-yl)-2-phenylethyl)-4-(4H-1,2,4-triazol-4-yl)benzamide]", "IC50": 0.189}
{"compound": "Cc1ncn(-c2cc(Cl)c(C(=O)NC[C@@H](c3cccc(F)c3)c3nc4c(F)ccc(C)c4c(=O)[nH]3)c(Cl)c2)n1", "note": "[Example 92, (R)-2,6-dichloro-N-(2-(8-fluoro-5-methyl-4-oxo-3,4-dihydroquinazolin-2-yl)-2-(3-fluorophenyl)ethyl)-4-(3-methyl-1H-1,2,4-triazol-1-yl)benzamide]", "IC50": 0.001}
{"compound": "Cc1ncn(-c2cc(Cl)c(C(=O)NC[C@@H](c3ccc(F)cc3)c3nc4c(F)ccc(C)c4c(=O)[nH]3)c(Cl)c2)n1", "note": "[Example 93, (R)-2,6-dichloro-N-(2-(8-fluoro-5-methyl-4-oxo-3,4-dihydroquinazolin-2-yl)-2-(4-fluorophenyl)ethyl)-4-(3-methyl-1H-1,2,4-triazol-1-yl)benzamide]", "IC50": 0.0046}
{"compound": "Cc1ncn(-c2cc(Cl)c(C(=O)NC[C@@H](c3cccc(F)c3)c3nc4c(F)ccc(Cl)c4c(=O)[nH]3)c(Cl)c2)n1", "note": "[Example 94, (R)-2,6-dichloro-N-(2-(5-chloro-8-fluoro-4-oxo-3,4-dihydroquinazolin-2-yl)-2-(3-fluorophenyl)ethyl)-4-(3-methyl-1H-1,2,4-triazol-1-yl)benzamide]", "IC50": 0.0035}
{"biological_target": "Factor IXa (Homo sapiens (Human), UniProt P00740)", "test": "Determination of inhibitory activity against Factor IXa (cleavage of fluorescent peptide CH3SO2-D-CHG-Gly-Arg-AFC)", "assay_type": "biochemical", "settings": "read-out: hFIXa IC50", "description": "as §1, §2", "units": {"IC50": "µM"}}
{"compound": "Cc1cc2nc(C(CNC(=O)c3ccc(-n4cnnc4)cc3Cl)c3ccccc3F)[nH]c2cc1C", "note": "(centres unmarked) [Example 51]", "IC50": 0.0193}
{"compound": "Cc1cc2nc(C(CNC(=O)c3ccc(-n4cnnc4)cc3Cl)c3ccc(F)cc3)[nH]c2cc1C", "note": "(centres unmarked) [Example 52]", "IC50": 0.00842}
{"compound": "Cc1cc2nc(C(CNC(=O)c3c(Cl)cc(-n4cnnc4)cc3Cl)c3ccc(F)cc3)[nH]c2cc1C", "note": "(centres unmarked) [Example 53]", "IC50": 0.00282}
{"compound": "Cc1ncn(-c2ccc(C(=O)NCC(c3ccc(C(F)(F)F)nc3)c3nc4cc(C)c(C)cc4[nH]3)c(Cl)c2)n1", "note": "(centres unmarked) [Example 55]", "IC50": 0.427}
{"compound": "Cc1cc2nc(C(CNC(=O)c3ccc(-n4cnnc4)cc3Cl)c3cccnc3)[nH]c2cc1C", "note": "(centres unmarked) [Example 56]", "IC50": 0.0154}
{"compound": "COc1cc2nc([C@@H](CNC(=O)c3c(Cl)cc(-n4cnc(C)n4)cc3Cl)c3cnc(N(C)C)nc3)[nH]c2cc1Cl", "note": "[Example 57]", "IC50": 0.00876}
{"compound": "COc1cc2nc([C@@H](CNC(=O)c3c(Cl)cc(-n4cnc(C)n4)cc3Cl)c3ccc(C(N)=O)cc3)[nH]c2cc1Cl", "note": "[Example 58]", "IC50": 0.00236}
{"compound": "COc1cc2nc(C(CNC(=O)c3c(Cl)cc(-n4cnc(C)n4)cc3Cl)c3cccc(C(=O)O)c3)[nH]c2cc1Cl", "note": "(centres unmarked) [Example 59]", "IC50": 0.0015}
{"compound": "COc1cc2nc([C@@H](CNC(=O)c3c(Cl)cc(-n4cnc(C)n4)cc3Cl)c3ccc(C(=O)O)cc3)[nH]c2cc1Cl", "note": "[Example 60]", "IC50": 0.00479}
{"compound": "CNC(=O)c1cccc([C@H](CNC(=O)c2c(Cl)cc(-n3cnc(C)n3)cc2Cl)c2nc3cc(OC)c(Cl)cc3[nH]2)c1", "note": "[Example 61]", "IC50": 0.00478}
{"compound": "COc1cc2nc(C(CNC(=O)c3c(Cl)cc(-n4cnc(C)n4)cc3Cl)c3cccc(CC(=O)O)c3)[nH]c2cc1Cl", "note": "(centres unmarked) [Example 62]", "IC50": 0.00175}
{"compound": "COc1cc2nc([C@@H](CNC(=O)c3c(Cl)cc(-n4cnc(C)n4)cc3Cl)c3ccc(C(=O)N(C)C)cc3)[nH]c2cc1Cl", "note": "[Example 63]", "IC50": 0.0277}
{"compound": "COC(=O)Cc1cccc(C(CNC(=O)c2c(Cl)cc(-n3cnc(C)n3)cc2Cl)c2nc3cc(OC)c(Cl)cc3[nH]2)c1", "note": "(centres unmarked) [Example 64]", "IC50": 0.0061}
{"compound": "CCOC(=O)c1ccc([C@H](CNC(=O)c2c(Cl)cc(-n3cnc(C)n3)cc2Cl)c2nc3cc(OC)c(Cl)cc3[nH]2)cc1", "note": "[Example 65]", "IC50": 0.0056}
{"compound": "CCOC(=O)c1cccc([C@H](CNC(=O)c2c(Cl)cc(-n3cnc(C)n3)cc2Cl)c2nc3cc(OC)c(Cl)cc3[nH]2)c1", "note": "[Example 66]", "IC50": 0.0168}
{"compound": "COc1cc2nc([C@@H](CNC(=O)c3c(Cl)cc(-n4cnc(C)n4)cc3Cl)c3cccc(C(=O)NC4CC4)c3)[nH]c2cc1Cl", "note": "[Example 67]", "IC50": 0.0029}
{"compound": "Cc1cc2nc(C(CNC(=O)c3ccc(-n4cnnc4)cc3Cl)c3cccc(F)c3)oc2cc1C", "note": "(centres unmarked) [Example 68]", "IC50": 0.0719}
{"compound": "COc1cc2nc([C@@H](CNC(=O)c3c(Cl)cc(-n4cnc(C)n4)cc3Cl)n3cc(CN(C)C)nn3)[nH]c2cc1Cl", "note": "[Example 72]", "IC50": 0.0672}
{"compound": "COc1cc2nc(C(CNC(=O)c3c(Cl)cc(-n4cnc(C)n4)cc3Cl)n3cc(C(C)(C)O)nn3)[nH]c2cc1Cl", "note": "(centres unmarked) [Example 73]", "IC50": 0.0344}
{"compound": "Cc1ncn(-c2cc(Cl)c(C(=O)NC[C@@H](c3cccc(F)c3)c3cnc4[nH]c(C)cc4c3)c(Cl)c2)n1", "note": "[Example 77]", "IC50": 0.0037}
{"compound": "Cc1ncn(-c2cc(Cl)c(C(=O)NC[C@@H](c3cccc(F)c3)c3ccc4[nH]c(C)nc4c3F)c(Cl)c2)n1", "note": "[Example 78]", "IC50": 0.00193}
{"compound": "Cc1ncn(-c2cc(Cl)c(C(=O)NC[C@@H](c3cccc(F)c3)c3cc(F)c4[nH]c(C)nc4c3)c(Cl)c2)n1", "note": "[Example 79]", "IC50": 0.00642}
{"compound": "Cc1ncn(-c2cc(Cl)c(C(=O)NC[C@@H](c3cccc(F)c3)c3ccc4[nH]c(C)nc4n3)c(Cl)c2)n1", "note": "[Example 80]", "IC50": 0.0169}
{"compound": "Cc1ncn(-c2cc(Cl)c(C(=O)NCC(c3cccc(F)c3)c3cc4nc(C)[nH]c4cn3)c(Cl)c2)n1", "note": "(centres unmarked) [Example 81]", "IC50": 0.126}
{"compound": "Cc1ncn(-c2cc(Cl)c(C(=O)NC[C@@H](c3cccc(F)c3)c3cc(C)c4[nH]c(C)nc4c3)c(Cl)c2)n1", "note": "[Example 82]", "IC50": 0.0752}
{"compound": "Cc1ccc2c([C@H](CNC(=O)c3ccc(-n4cnnc4)cc3Cl)c3cccc(F)c3)c[nH]c2c1", "note": "[Example 87]", "IC50": 0.0311}
{"compound": "O=C(NCC(c1ccccc1)c1nc2cc(Cl)ccc2c(=O)[nH]1)c1ccc(-n2cnnc2)cc1Cl", "note": "(centres unmarked) [Example 95]", "IC50": 0.803}
{"compound": "O=C(NC[C@@H](c1ccccc1)c1nc2ccc(Cl)cc2c(=O)[nH]1)c1ccc(-n2cnnc2)cc1Cl", "note": "[Example 96]", "IC50": 0.188}
{"compound": "O=C(NC[C@@H](c1ccccc1)c1nc2cccc(Cl)c2c(=O)[nH]1)c1ccc(-n2cnnc2)cc1Cl", "note": "[Example 97]", "IC50": 0.0515}
{"compound": "O=C(NC[C@@H](c1ccccc1)c1nc2c(Cl)cccc2c(=O)[nH]1)c1ccc(-n2cnnc2)cc1Cl", "note": "[Example 98]", "IC50": 0.178}
{"compound": "O=C(NC[C@@H](c1ccccc1)c1nc2c(Cl)ccc(Cl)c2c(=O)[nH]1)c1ccc(-n2cnnc2)cc1Cl", "note": "[Example 99]", "IC50": 0.0431}
{"compound": "Cc1cccc2nc([C@@H](CNC(=O)c3ccc(-n4cnnc4)cc3Cl)c3ccccc3)[nH]c(=O)c12", "note": "[Example 100]", "IC50": 0.0168}
